Laboratory results from patent publication US10376520B2, “Methods for the treatment of cardiovascular disorders” (Galapagos NV, priority 2015, dated 2019).

System: RA patients
Assay: Total cholesterol determination, Study 2 (RA patients, monotherapy with Compound 1)
Assay type: in vivo, human
Source text: Randomized, double-blind, placebo-controlled, multicenter, phase IIb dose finding study of Compound 1 (dosed as a [Compound 1:HCl:3H2O]) administered for 24 weeks as monotherapy to subjects with moderately to severely active rheumatoid arthritis who have an inadequate response to methotrexate alone
Double-blind, placebo-controlled, monotherapy study in subjects with moderately to severely active RA who have an inadequate response to methotrexate (MTX) (oral or parenteral).
280 subjects randomized to one of 3 doses of Compound 1 (dosed as a [Compound 1:HCl:3H2O]) or to placebo, given once daily (q.d.).
Twelve weeks of treatment with Compound 1 (dosed as a [Compound 1:HCl:3H2O]) at 50 mg, 100 mg, or 200 mg q.d.; or placebo. At Week 12, all subjects on placebo and the subjects on the 50 mg dose who have not achieved 20% improvement in swollen joint count (SJC66) and tender joint count (TJC68) will be assigned to 100 mg q.d. in a blinded fashion and will continue treatment until Week 24. Subjects in the other groups will maintain their randomized treatment until Week 24.
This method is based on the determination of Δ^4 cholestenone after enzymatic cleavage of the cholesterol ester by cholesterol esterase, conversion of cholesterol by cholesterol oxidase, and subsequent measurement by the Trinder reaction of the hydrogen peroxide formed (Allain et al., 1974).
Cholesterol esters are cleaved by the action of cholesterol esterase to yield free cholesterol and fatty acids. Cholesterol oxidase then catalyzes the oxidation of cholesterol to cholest-4-en-3-one and hydrogen peroxide. In the presence of peroxidase, the hydrogen peroxide formed effects the oxidative coupling of phenol and 4-aminophenazone to form a red quinone-imine dye. The color intensity of the dye formed is directly proportional to the cholesterol concentration. It is determined by measuring the increase in absorbance.
Human serum and plasma samples cholesterol determination was done on a Roche/Hitachi Cobas c 701/702 system which automatically calculate the analyte concentration of each sample.

[1] = 50 mg q.d. non responders switching to 100 mg q.d. at week 12, week 1
[2] = 50 mg q.d. non responders switching to 100 mg q.d. at week 12, week 2
[3] = 50 mg q.d. non responders switching to 100 mg q.d. at week 12, week 4
[4] = 50 mg q.d. non responders switching to 100 mg q.d. at week 12, week 8
[5] = 50 mg q.d. non responders switching to 100 mg q.d. at week 12, week 12
[6] = 50 mg q.d. non responders switching to 100 mg q.d. at week 12, week 16
[7] = 50 mg q.d. non responders switching to 100 mg q.d. at week 12, week 20
[8] = 50 mg q.d. non responders switching to 100 mg q.d. at week 12, week 24

O=C(Nc1nc2cccc(-c3ccc(CN4CCS(=O)(=O)CC4)cc3)n2n1)C1CC1 [Compound 1, cyclopropanecarboxylic acid {5-[4-(1,1-dioxo-thiomorpholin-4-ylmethyl)-phenyl]-[1,2,4]triazolo[1,5-a]pyridin-2yl}-amide]
[total cholesterol] Mean percentage CFB - 24 weeks results [1]: 4.56% | [total cholesterol] Median percentage CFB - 24 weeks results [1]: 2.94% | [total cholesterol] Mean percentage CFB - 24 weeks results [2]: 3.50% | [total cholesterol] Median percentage CFB - 24 weeks results [2]: 2.00% | [total cholesterol] Mean percentage CFB - 24 weeks results [3]: 7.51% | [total cholesterol] Median percentage CFB - 24 weeks results [3]: 6.58% | [total cholesterol] Mean percentage CFB - 24 weeks results [4]: 5.10% | [total cholesterol] Median percentage CFB - 24 weeks results [4]: 2.88% | [total cholesterol] Mean percentage CFB - 24 weeks results [5]: 5.83% | [total cholesterol] Median percentage CFB - 24 weeks results [5]: 6.79% | [total cholesterol] Mean percentage CFB - 24 weeks results [6]: 9.72% | [total cholesterol] Median percentage CFB - 24 weeks results [6]: 11.41% | [total cholesterol] Mean percentage CFB - 24 weeks results [7]: 9.75% | [total cholesterol] Median percentage CFB - 24 weeks results [7]: 7.07% | [total cholesterol] Mean percentage CFB - 24 weeks results [8]: 10.66% | [total cholesterol] Median percentage CFB - 24 weeks results [8]: 10.65% | [total cholesterol] Mean percentage CFB - 24 weeks results (50 mg q.d. responders, week 1): 0.02% | [total cholesterol] Median percentage CFB - 24 weeks results (50 mg q.d. responders, week 1): 0.35% | [total cholesterol] Median percentage CFB - 24 weeks results (50 mg q.d. responders, week 2): −0.82% | [total cholesterol] Mean percentage CFB - 24 weeks results (50 mg q.d. responders, week 4): 1.68% | [total cholesterol] Median percentage CFB - 24 weeks results (50 mg q.d. responders, week 4): −0.51% | [total cholesterol] Mean percentage CFB - 24 weeks results (50 mg q.d. responders, week 8): 5.55% | [total cholesterol] Median percentage CFB - 24 weeks results (50 mg q.d. responders, week 8): 5.74% | [total cholesterol] Mean percentage CFB - 24 weeks results (50 mg q.d. responders, week 12): 3.59% | [total cholesterol] Median percentage CFB - 24 weeks results (50 mg q.d. responders, week 12): 1.01% | [total cholesterol] Mean percentage CFB - 24 weeks results (50 mg q.d. responders, week 16): 5.85% | [total cholesterol] Median percentage CFB - 24 weeks results (50 mg q.d. responders, week 16): 2.92% | [total cholesterol] Mean percentage CFB - 24 weeks results (50 mg q.d. responders, week 20): 2.09% | [total cholesterol] Median percentage CFB - 24 weeks results (50 mg q.d. responders, week 20): 3.75% | [total cholesterol] Mean percentage CFB - 24 weeks results (50 mg q.d. responders, week 24): 3.49% | [total cholesterol] Median percentage CFB - 24 weeks results (50 mg q.d. responders, week 24): 5.44% | [total cholesterol] Mean percentage CFB - 12 weeks results (50 mg q.d., week 1): 0.96% | [total cholesterol] Median percentage CFB - 12 weeks results (50 mg q.d., week 1): 2.12% | [total cholesterol] Mean percentage CFB - 12 weeks results (50 mg q.d., week 2): −0.18% | [total cholesterol] Median percentage CFB - 12 weeks results (50 mg q.d., week 2): 0.00% | [total cholesterol] Mean percentage CFB - 12 weeks results (50 mg q.d., week 4): 2.91% | [total cholesterol] Median percentage CFB - 12 weeks results (50 mg q.d., week 4): 0.00% | [total cholesterol] Mean percentage CFB - 12 weeks results (50 mg q.d., week 8): 5.45% | [total cholesterol] Median percentage CFB - 12 weeks results (50 mg q.d., week 8): 4.90% | [total cholesterol] Mean percentage CFB - 12 weeks results (50 mg q.d., week 12): 4.08% | [total cholesterol] Median percentage CFB - 12 weeks results (50 mg q.d., week 12): 3.43% | [total cholesterol] Mean percentage CFB - 12 weeks results (100 mg q.d., week 1): 4.15% | [total cholesterol] Mean percentage CFB - 24 weeks results (100 mg q.d., week 1): 4.15% | [total cholesterol] Median percentage CFB - 24 weeks results (100 mg q.d., week 1): 2.38% | [total cholesterol] Mean percentage CFB - 12 weeks results (100 mg q.d., week 2): 4.96% | [total cholesterol] Mean percentage CFB - 24 weeks results (100 mg q.d., week 2): 4.96% | [total cholesterol] Median percentage CFB - 24 weeks results (100 mg q.d., week 2): 2.65% | [total cholesterol] Mean percentage CFB - 12 weeks results (100 mg q.d., week 4): 8.28% | [total cholesterol] Mean percentage CFB - 24 weeks results (100 mg q.d., week 4): 8.28% | [total cholesterol] Median percentage CFB - 24 weeks results (100 mg q.d., week 4): 5.40% | [total cholesterol] Mean percentage CFB - 12 weeks results (100 mg q.d., week 8): 7.75% | [total cholesterol] Mean percentage CFB - 24 weeks results (100 mg q.d., week 8): 7.75% | [total cholesterol] Median percentage CFB - 24 weeks results (100 mg q.d., week 8): 6.08% | [total cholesterol] Mean percentage CFB - 12 weeks results (100 mg q.d., week 12): 12.45% | [total cholesterol] Mean percentage CFB - 24 weeks results (100 mg q.d., week 12): 12.45% | [total cholesterol] Median percentage CFB - 24 weeks results (100 mg q.d., week 12): 6.41% | [total cholesterol] Mean percentage CFB - 24 weeks results (100 mg q.d., week 16): 10.96% | [total cholesterol] Median percentage CFB - 24 weeks results (100 mg q.d., week 16): 8.91% | [total cholesterol] Mean percentage CFB - 24 weeks results (100 mg q.d., week 20): 10.06% | [total cholesterol] Median percentage CFB - 24 weeks results (100 mg q.d., week 20): 9.85% | [total cholesterol] Mean percentage CFB - 24 weeks results (100 mg q.d., week 24): 11.75% | [total cholesterol] Median percentage CFB - 24 weeks results (100 mg q.d., week 24): 10.29% | [total cholesterol] Mean percentage CFB - 12 weeks results (200 mg q.d., week 1): 5.77% | [total cholesterol] Mean percentage CFB - 24 weeks results (200 mg q.d., week 1): 5.77% | [total cholesterol] Median percentage CFB - 24 weeks results (200 mg q.d., week 1): 5.37% | [total cholesterol] Mean percentage CFB - 12 weeks results (200 mg q.d., week 2): 7.74% | [total cholesterol] Mean percentage CFB - 24 weeks results (200 mg q.d., week 2): 7.74% | [total cholesterol] Median percentage CFB - 24 weeks results (200 mg q.d., week 2): 6.90% | [total cholesterol] Mean percentage CFB - 12 weeks results (200 mg q.d., week 4): 9.35%
